Experimental findings from patent US10913753B2, “Thienopyridine carboxamides as ubiquitin-specific protease inhibitors” (FORMA Therapeutics, Inc., priority 2016, dated 2021) are described below.

Assay [1] concerns the target USP28 (Homo sapiens (Human), UniProt Q96RU2). Kind of assay: Ubiquitin-Rhodamine 110 Assay for USP28 Activity. It is filed as biochemical. In short, it runs like this: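 Single-point screen at 10 μM, 90 min; follow-up dose-response (25 μM top, 3-fold) with 75 pM USP28 (1-1077)-TEV-6*His, 30 min compound preincubation, Ub-Rh110 substrate for 20 min at room temperature, citric acid stop. Buffer pH 8.0 Tris; fluorescence 485/535 nm; IC50 by 4-parameter logistic fit of % inhibition.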

Assay [2] addresses USP25 (Homo sapiens (Human), UniProt Q9UHP3). The experiment in a line: Ubiquitin-Rhodamine 110 Assay for USP25 Activity. In kind it is biochemical. In short, it runs like this:
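USP25-His6 (75 pM) preincubated 30 min with compound (25 μM to 1.3 nM, 10-point 3-fold), then Ub-Rh110 added; 45 min at room temperature in pH 8.0 Tris buffer with BME, BGG, Triton X-100, stopped with 10 mM citric acid. Fluorescence 485/535 nm; % inhibition vs no-enzyme and DMSO controls, IC50 by 4-parameter logistic fit.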

pIC50: −log10 of the molar value.

USP28, sequence (Q96RU2 whole entry): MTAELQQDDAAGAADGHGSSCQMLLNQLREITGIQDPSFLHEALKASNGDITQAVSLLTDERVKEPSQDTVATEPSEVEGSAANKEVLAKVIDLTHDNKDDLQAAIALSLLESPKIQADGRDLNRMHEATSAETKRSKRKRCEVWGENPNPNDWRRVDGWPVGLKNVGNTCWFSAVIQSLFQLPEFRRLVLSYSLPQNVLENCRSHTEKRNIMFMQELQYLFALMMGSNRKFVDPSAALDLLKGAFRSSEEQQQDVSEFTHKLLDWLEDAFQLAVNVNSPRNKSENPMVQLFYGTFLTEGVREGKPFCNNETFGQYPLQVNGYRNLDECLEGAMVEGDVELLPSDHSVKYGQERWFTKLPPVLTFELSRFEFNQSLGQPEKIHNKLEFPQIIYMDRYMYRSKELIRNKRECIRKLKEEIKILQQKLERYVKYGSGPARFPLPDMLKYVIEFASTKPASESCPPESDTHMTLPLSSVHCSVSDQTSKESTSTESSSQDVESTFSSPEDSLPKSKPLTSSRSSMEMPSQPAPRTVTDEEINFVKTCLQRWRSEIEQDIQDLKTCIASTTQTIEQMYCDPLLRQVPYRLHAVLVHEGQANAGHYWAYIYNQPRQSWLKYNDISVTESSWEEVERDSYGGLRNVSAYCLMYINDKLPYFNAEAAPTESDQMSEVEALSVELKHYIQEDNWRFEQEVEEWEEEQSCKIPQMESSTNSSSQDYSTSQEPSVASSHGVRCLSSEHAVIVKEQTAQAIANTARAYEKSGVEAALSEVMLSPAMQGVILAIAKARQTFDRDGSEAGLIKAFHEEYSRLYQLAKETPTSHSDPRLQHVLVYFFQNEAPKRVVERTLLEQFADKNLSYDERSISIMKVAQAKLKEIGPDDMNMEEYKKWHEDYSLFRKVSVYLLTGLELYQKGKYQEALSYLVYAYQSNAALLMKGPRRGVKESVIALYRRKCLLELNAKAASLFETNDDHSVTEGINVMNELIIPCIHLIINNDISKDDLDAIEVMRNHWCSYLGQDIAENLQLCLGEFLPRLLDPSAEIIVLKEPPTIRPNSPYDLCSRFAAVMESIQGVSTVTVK
USP25, sequence (Q9UHP3 whole entry): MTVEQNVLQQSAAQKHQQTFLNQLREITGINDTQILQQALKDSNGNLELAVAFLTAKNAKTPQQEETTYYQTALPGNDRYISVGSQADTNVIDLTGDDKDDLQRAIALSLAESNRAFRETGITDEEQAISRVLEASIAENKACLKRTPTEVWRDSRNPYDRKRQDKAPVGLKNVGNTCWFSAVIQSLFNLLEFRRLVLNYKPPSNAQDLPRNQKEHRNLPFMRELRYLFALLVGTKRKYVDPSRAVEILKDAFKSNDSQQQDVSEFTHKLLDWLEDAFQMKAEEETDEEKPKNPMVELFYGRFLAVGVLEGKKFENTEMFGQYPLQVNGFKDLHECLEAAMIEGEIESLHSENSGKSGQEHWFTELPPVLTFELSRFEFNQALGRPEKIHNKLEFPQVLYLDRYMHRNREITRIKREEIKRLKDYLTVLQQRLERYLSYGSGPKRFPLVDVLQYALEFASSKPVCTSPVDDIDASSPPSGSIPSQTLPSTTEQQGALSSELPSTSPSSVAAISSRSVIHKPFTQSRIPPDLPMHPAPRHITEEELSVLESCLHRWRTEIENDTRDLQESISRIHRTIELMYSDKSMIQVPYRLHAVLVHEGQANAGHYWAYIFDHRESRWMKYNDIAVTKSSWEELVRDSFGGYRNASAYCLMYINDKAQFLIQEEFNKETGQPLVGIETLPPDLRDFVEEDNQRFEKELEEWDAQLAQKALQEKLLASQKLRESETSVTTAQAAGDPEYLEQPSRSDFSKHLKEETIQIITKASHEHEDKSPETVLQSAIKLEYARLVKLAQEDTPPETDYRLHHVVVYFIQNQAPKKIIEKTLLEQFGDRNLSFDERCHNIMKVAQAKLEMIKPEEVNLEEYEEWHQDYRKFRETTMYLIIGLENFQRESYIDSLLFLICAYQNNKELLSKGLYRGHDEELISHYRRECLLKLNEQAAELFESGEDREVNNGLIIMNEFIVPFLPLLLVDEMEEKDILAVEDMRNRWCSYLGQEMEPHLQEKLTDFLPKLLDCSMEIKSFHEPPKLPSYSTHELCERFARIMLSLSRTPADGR

With `Cc1ccc2c(N)c(C(=O)NC[C@@H](C)c3ccc(N4CC5CCC(C4)N5)c(C#N)c3)sc2n1` (single isomer, unassigned) [Example I-109], the pIC50 (in general, −log10 of the IC50, conventionally taken in molar units) in assay [1] is 5.70 to 6.70; in assay [2] it was 5.00 to 5.70.

On to `Cc1ccc2c(N)c(C(=O)NCCc3cc(F)c(NC4CNC4)cc3F)sc2n1` [Compound I-70], for which the results for the pIC50 in assay [1] and in assay [2] were above 6.70 and 5.70 to 6.70, respectively.

Take `Nc1c(C(=O)NCCc2ccc(N3CCNCC3)cc2)sc2nc(C(F)(F)F)ccc12` [Compound I-33]: the pIC50 in assay [1] and in assay [2] was 5.00 to 5.70 each time.

In the case of `Cc1ccc2c(N)c(C(=O)NCCc3ccc(N4CCNCC4)c(O)c3)sc2n1` [Example I-182, 3-amino-N-(3-hydroxy-4-(piperazin-1-yl)phenethyl)-6-methylthieno[2,3-b]pyridine-2-carboxamide], the negative-log IC50 (pIC50) in assay [1] is 5.70 to 6.70; in assay [2] it was 5.00 to 5.70.

As for `Cc1ccc2c(N)c(C(=O)NCCc3ccc(N4CC[C@@H](NC(C)C)C4)cc3)sc2n1` [Compound I-201], the negative logarithm of the IC50 (pIC50) in assay [1] and in assay [2] was 5.70 to 6.70 in each case.

`Nc1nc2sc(C(=O)NCCc3ccc(N4CCNCC4)cc3)c(N)c2cc1F` [Example I-115, 3,6-Diamino-5-fluoro-N-(4-(piperazin-1-yl)phenethyl)thieno[2,3-b]pyridine-2-carboxamide]: the results for the negative-log IC50 (pIC50) in assay [1] and in assay [2] were above 6.70 and 5.70 to 6.70, respectively.

Take `Cc1ccc2c(N)c(C(=O)NCCc3ccc(N4CCN[C@@H](CO)C4)cc3)sc2n1` [Example I-87]: the pIC50 in assay [1] is above 6.70; in assay [2], 5.70 to 6.70.

Take `Cc1ccc2c(N)c(C(=O)NCCc3ccc(N4CCN[C@@H](C)C4)cc3)sc2n1` [Example I-121, (S)-3-amino-6-methyl-N-(4-(3-methylpiperazin-1-yl)phenethyl)thieno[2,3-b]pyridine-2-carboxamide]: the pIC50 in assay [1] and in assay [2] was 5.70 to 6.70 throughout.

Turning to `Cc1nc2sc(C(=O)NCCc3cc(F)c(N4CC5CCC(C4)N5)cc3F)c(N)c2cc1F` [Compound I-72], the negative-log IC50 (pIC50) in assay [1] is above 6.70; in assay [2], 5.70 to 6.70.

Take `Cc1ccc2c(N)c(C(=O)NCCc3ccc(O[C@H]4COC5(CNC5)C4)cc3)sc2n1` (single isomer, unassigned) [Example I-219]: the negative logarithm of the IC50 (pIC50) in assay [1] and in assay [2] was 5.70 to 6.70 in each case.

In the case of `COc1cc(C)nc2sc(C(=O)NCCc3ccc(N4CCNCC4)cc3)c(N)c12` [Compound I-24], the results for the pIC50 in assay [1] and in assay [2] were 5.00 to 5.70 and 4.60 to 5.00, respectively.

For `Cc1ccc2c(N)c(C(=O)NCCc3ccc(N4CCNCC4)c(-c4ccc(C(=O)N5CCCC5)cc4)c3)sc2n1` [Example I-165], the figures for the negative logarithm of the IC50 (pIC50) in assay [1] and in assay [2] were 5.70 to 6.70 and 4.60 to 5.00, respectively.

Regarding `Cc1ccc2c(N)c(C(=O)NCCc3cccc(CC(=O)O)c3)sc2n1` [Example I-178], the negative-log IC50 (pIC50) in assay [1] and in assay [2] was 5.00 to 5.70 throughout.

In the case of `Cc1ccc2c(N)c(C(=O)NCCc3ccc(N4CCN(CC5CCO5)CC4)cc3)sc2n1` (centres unmarked) [Compound I-25], the pIC50 in assay [1] was 5.70 to 6.70; in assay [2], 5.00 to 5.70.

In the case of `COCCN1CCN(c2ccc(CCNC(=O)c3sc4nc(C)ccc4c3N)cc2)CC1` [Compound I-26], the negative-log IC50 (pIC50) in assay [1] is 5.70 to 6.70; in assay [2], 5.00 to 5.70.

As for `Cc1ccc2c(N)c(C(=O)NCCc3ccc(C4CCNCC4)c(F)c3)sc2n1` [Example I-169, 3-Amino-N-(3-fluoro-4-(piperidin-4-yl)phenethyl)-6-methylthieno[2,3-b]pyridine-2-carboxamide], the pIC50 in assay [1] was above 6.70; in assay [2], 5.70 to 6.70.

For `CCOc1ccc2c(N)c(C(=O)NCCc3ccc(N4CCNCC4)cc3)sc2n1` [Example I-191], the pIC50 in assay [1] was 5.70 to 6.70; in assay [2] it was 5.00 to 5.70.

`COc1nc2sc(C(=O)NCCc3cc(F)c(N4CCNCC4)cc3F)c(N)c2cc1F` [Compound I-68]: the values for the pIC50 in assay [1] and in assay [2] were 5.70 to 6.70 and 5.00 to 5.70, respectively.

In the case of `Cc1ccc2c(N)c(C(=O)NCCc3cc(F)c(N4C[C@H]5CCN[C@H]5C4)cc3F)sc2n1` [Example I-96], the negative logarithm of the IC50 (pIC50) was above 6.70 in assay [1] and 5.70 to 6.70 in assay [2].
